Source: ChEMBL document CHEMBL5126586, “Chemical analysis of amyloid β aggregation inhibitors derived from Geranium thunbergii” (Bioorg Med Chem, 2022)
pEC50: −log10 of the molar value.

Experiments:
[1] = biological target: T1, Amyloid-beta precursor protein (Homo sapiens, UniProt P05067); test: Inhibition of amyloid beta 1 to 42 aggregation (unknown origin) incubated for 24 hrs by inverted fluorescence microscopic analysis
[2] = biological target: T1, Amyloid-beta precursor protein; test: Inhibition of amyloid beta 1 to 42 aggregation (unknown origin) incubated for 24 hrs by inverted fluorescence microscopic analysis relative to control; conditions: concentration not given here
[3] = biological target: T1, Amyloid-beta precursor protein; test: Inhibition of amyloid beta 1 to 42 aggregation (unknown origin) incubated for 24 hrs by ThT fluorescence assay relative to control; conditions: concentration not given here
[4] = biological target: T1, Amyloid-beta precursor protein; test: Inhibition of amyloid beta 1 to 42 aggregation (unknown origin) incubated for 24 hrs by ThT fluorescence assay

T1 sequence (P05067 whole entry): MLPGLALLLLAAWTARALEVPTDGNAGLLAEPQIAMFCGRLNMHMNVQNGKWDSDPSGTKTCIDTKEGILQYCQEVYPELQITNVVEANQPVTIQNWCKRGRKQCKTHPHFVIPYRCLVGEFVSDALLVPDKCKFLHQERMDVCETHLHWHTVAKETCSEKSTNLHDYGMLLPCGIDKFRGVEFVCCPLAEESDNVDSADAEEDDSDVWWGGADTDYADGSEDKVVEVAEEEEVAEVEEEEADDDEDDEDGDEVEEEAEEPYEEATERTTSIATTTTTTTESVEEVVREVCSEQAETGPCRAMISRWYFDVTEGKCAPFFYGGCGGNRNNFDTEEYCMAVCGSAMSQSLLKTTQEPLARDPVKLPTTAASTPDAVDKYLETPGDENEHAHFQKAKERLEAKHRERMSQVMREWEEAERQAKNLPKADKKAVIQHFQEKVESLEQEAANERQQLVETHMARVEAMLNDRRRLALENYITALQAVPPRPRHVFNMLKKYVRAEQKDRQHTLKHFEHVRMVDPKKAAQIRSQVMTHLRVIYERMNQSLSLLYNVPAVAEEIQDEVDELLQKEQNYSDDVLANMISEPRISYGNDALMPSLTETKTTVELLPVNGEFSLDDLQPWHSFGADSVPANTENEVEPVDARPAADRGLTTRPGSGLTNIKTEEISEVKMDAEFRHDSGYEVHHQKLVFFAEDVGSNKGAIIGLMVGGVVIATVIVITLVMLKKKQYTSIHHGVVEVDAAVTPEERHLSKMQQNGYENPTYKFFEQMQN

Structure (SMILES) | pEC50 [1] | inhibition [2] | inhibition [3] | pEC50 [4]
O=C(O)c1cc(O)c(O)c(O)c1-c1c(C(=O)O)cc(O)c(O)c1O | 3.25 | < 0.01% | < 0.01% | 
O=C(O[C@@H]1O[C@@H]2COC(=O)c3cc(O)c(O)c(O)c3-c3c(cc(O)c(O)c3O)C(=O)O[C@H]([C@H]1O)[C@@H]2O)c1cc(O)c(O)c(O)c1 [CORILAGIN] | 5.30 | 25% | 14% | 4.85
O=c1oc2c(O)c(O)cc3c(=O)oc4c(O)c(O)cc1c4c23 [ELLAGIC ACID] | 3.25 | 0.15% | < 0.01% | 
O=C(O)c1cc(O)c(O)c(O)c1 [GALLIC ACID] | 4.73 | 92% |  | 5.00
O=C1O[C@H]2[C@@H]3OC(=O)c4cc(O)c(O)c(O)c4-c4c(cc(O)c(O)c4O)C(=O)OC[C@H]2O[C@@H](OC(=O)c2cc(O)c(O)c(O)c2)[C@@H]3OC(=O)c2cc(O)c(O)c3c2[C@@H]2C1=CC(=O)[C@](O)(O3)C2(O)O [GERANIIN] | 5.15 |  |  | 4.98
